Marks after values point to notes of the source that are not given here.
Key:
[1] = system: feedlot steers; conditions: steers supplemented with ractopamine compared to the control; cited from earlier work
[2] = system: beef cattle; test: Feedlot performance and carcass quality of beef cattle; assay type: in vivo, beef cattle of commercial breeds; conditions: last 30 days of fattening
Source text: In this study, all animals received the same prophylactic management, and all were subsequently assigned randomly to one of the following four treatments (25 animals per treatment, divided into pens of 5 experimental units per pen):
Definition of the 4 Treatments
Treatment 1 (Control): control animals (receiving only the basal diet without supplementation of the additive).
Treatment 2 (Ferulic Acid for 30 days=FA30): Animals receiving the basal diet supplemented with 240 ppm of ferulic acid during the last 30 days of the fattening period.
Treatment 3 (Ferulic Acid for 60 days=FA60): Animals receiving the basal diet supplemented with 240 ppm of ferulic acid during the last 60 days of the fattening period.
Treatment 4 (Zilmax commercial Zilpaterp; =ZX): Animals receiving the basal diet and supplemented with 6 ppm hydrochloride zilpaterol during the last 30 days of the fattening period.
During the experimental phase, all animals received a feeding ration consisting of 20% fodder and 80% concentrate. The crop was corn stover, while the concentrate consisted of different proportions of rolled corn grain, soybean meal, canola meal, distillery grains, and molasses. The ration was provided twice a day, and there was free access to the food and drinking water.
Initial and final live weight was recorded in the productive performance trial. The performance test lasted 60 days. Daily feed intake was evaluated, weight was recorded at the beginning and end of experimental period, in order to estimate the average daily gain and feed conversion.
Before concluding the performance test, 2 animals were randomly selected per pen (10 per treatment) for humanitarian slaughter. The animals were sacrificed following the standard procedures of the official Mexican standards in the municipal slaughterhouse of Guadalajara, Jalisco. Animal live weight was recorded before slaughter.
During the slaughter process, the pH of the carcass at 45 min postmortem in the Longissimus dorsi muscle (LD) was measured and the weight of the hot carcass was recorded. The carcasses were refrigerated at 0° C. for 24 hr. After this, the final pH was measured and cold carcass weight recorded, and the classification of carcasses was carried out, recording the Rib eye area (REA) in square inches, back fat thickness (BFT) in mm, and the marbling in the 12th intercostal space of the LD; the skeletal maturity and conformation of the carcass was also evaluated (10 carcasses per treatment). The assessment of quality of the carcass was made following the procedures described by the US Department of Agriculture (USDA, 2000).
All data for response variables of the quality of carcass and meat were analyzed under a completely randomized design, with a one-way ANOVA, taking the experimental treatments as a fixed effect. For carcass BFT and REA characteristics the hot carcass weight was used as a covariable. Regarding the sensory attributes, the model also included the effect of panelist as the repeated measure. The variables of the shelf life study were analyzed as a completely randomized design with factorial arrangement, factor A being the treatment with 4 levels, and factor B, the storage time with 5 levels. When there were statistical differences (P<0.05) between treatments, average comparisons were performed by the multiple range test of Tukey. All data was processed in the NCSS statistical package (NCSS, 2001).

[3] = system: Longissimus dorsi muscle; test: Chemical and physicochemical quality of Longissimus dorsi muscle from supplemented cattle; assay type: in vivo, beef cattle of commercial breeds; conditions: 240 ppm ferulic acid (FA30) or 6 ppm zilpaterol hydrochloride (ZX), last 30 days of fattening
Description: (§1) Subsequent to the carcass classification the rib eye cut (LD muscle) was obtained of the left side of each selected carcass. Meat samples were identified, vacuum packed, frozen at -18° C., and then shipped under refrigeration by air courier to the Centro de Investigación en Alimentacion y Desarrollo A.C. (CIAD) facilities at Hermosillo, Sonora, to perform quality analysis of the meat: Chemical analysis (moisture and fat content), physicochemical (objective color parameters L*, which measures the brightness of the meat, a* value, which measures the redness, and b* value which measures the tendency towards yellowness, and hue-angle, Warner-Bratzler shear force, water retention capacity and pH). A sensory test was done by a trained panel consisting of 10 members using a descriptive test with a semi-structured 10 cm scale, where zero indicates a […] of the attribute and a 10 indicates a favorable rating (e.g. tenderness, zero indicates extremely hard and 10 extremely tender). The sensory attributes that were measured: total color and overall appearance of raw meat, flavor, odor, color, tenderness, fat perception, juiciness, and perception of connective tissue in cooked meat. […] To measure cooking loss, the meat sample was weighed before and immediately after reaching the final cooking temperature, which was expressed in percentage. All data for response variables of the quality of carcass and meat were analyzed under a completely randomized design, with a one-way ANOVA, taking the experimental treatments as a fixed effect. For carcass BFT and REA characteristics the hot carcass weight was used as a covariable. Regarding the sensory attributes, the model also included the effect of panelist as the repeated measure. The variables of the shelf life study were analyzed as a completely randomized design with factorial arrangement, factor A being the treatment with 4 levels, and factor B, the storage time with 5 levels. When there were statistical differences (P<0.05) between treatments, average comparisons were performed by the multiple range test of Tukey.

[4] = system: Longissimus dorsi muscle; test: Sensory test of Longissimus dorsi meat by trained panel; assay type: in vivo, beef cattle of commercial breeds; conditions: FA30 240 ppm or ZX 6 ppm, last 30 days of fattening
Description: as §1

[5] = 240 ppm ferulic acid (FA30) or 6 ppm zilpaterol hydrochloride (ZX) in diet
[6] = 240 ppm ferulic acid (FA30) or 6 ppm zilpaterol hydrochloride (ZX)
[7] = cooked meat, semi-structured 10 cm scale
[8] = raw meat, semi-structured 10 cm scale

CC(CCc1ccc(O)cc1)NCC(O)c1ccc(O)cc1 (stereo not drawn) [ractopamine]
shear force of meat [1]: significant increase in the shear force

CC(C)N[C@@H]1CCn2c(=O)[nH]c3cccc(c32)[C@H]1O.Cl [ZX, zilpaterol hydrochloride, reference compound]
CY: carcass yield [2, 5]: 61.53^b % | FW: final weight [2, 5]: 579.4 kg | HCW: hot carcass weight [2, 5]: 356.34 kg | CCW: cold carcass weight ([2]; 240 ppm ferulic acid (FA30) or 6 ppm zilpaterol hydrochloride (ZX) in diet, carcass 24 hr at 0° C.): 350.62 kg | BFT: back fat thickness [2, 6]: 3.05 mm | PH24: pH at 24 h postmortem [2, 6]: 5.63 | REA: rib eye area [2, 6]: 15.41 Inch^2 | PH45: pH at 45 min postmortem ([2]; Longissimus dorsi, 240 ppm ferulic acid (FA30) or 6 ppm zilpaterol hydrochloride (ZX)): 6.17^a | Cooking loss [3]: 19.20^b % | Fat content [3]: 2.36% | Hue angle [3]: 36.05 | Moisture [3]: 73.02% | WHC: water holding capacity [3]: 25.13% | SF: shear force ([3]; Warner-Bratzler): 10.37^b kg F | L* value ([3]; fresh meat brightness): 35.34 | a* value ([3]; fresh meat redness): 16.39 | b* value ([3]; fresh meat yellowness): 11.95 | pH ([3]; meat): 5.57 | Tenderness ([4]; cooked meat, 10 cm scale, zero extremely hard, 10 extremely tender): 6.85^a | Connective tissue perception [4, 7]: 1.42 | Fat perception [4, 7]: 3.34 | Flavor intensity [4, 7]: 6.56^a | Juiciness [4, 7]: 6.00^a | Odor intensity [4, 7]: 7.89 | Appearance [4, 8]: 7.17 | Overall Color [4, 8]: 7.41
